# Measured values from patent US20220280515A1, “Ophthalmic Composition for Promoting Tear Secretion” (Rohto Pharmaceutical Co., Ltd., priority 2019, published 2022).
# Counter-ions that a name gives are not always drawn.
# How the values were obtained:
# [1] = tested on: normal rabbits; assay: Tear secretion promoting action by single ophthalmic administration, Schirmer's test paper, normal rabbits; format: in vivo, Japanese white rabbits; details: 0.05% solution in PBS, 50 μL/eye single instillation, 15 minutes later, Student's t test
# Description: The tear secretion promoting action of delgocitinib was evaluated using normal rabbits. Delgocitinib was dissolved and stirred in PBS (Kohjin Bio Co., Ltd.) to prepare a 0.05% delgocitinib solution. Male Japanese white rabbits (Oriental Yeast Co., Ltd.) were placed in retention tubes, and the PBS or the 0.05% delgocitinib solution was instilled at a dose of […]. Fifteen minutes later, a Schirmer's test paper was inserted into conjunctival sac on the corner of the eye. One minute later, the test paper was pulled out, and the length of the wet part of the test paper was measured, which was used as a tear volume.
# [2] = tested on: normal mice; assay: Tear secretion promoting action by single ophthalmic administration, phenol red thread, normal mice; format: in vivo, C57BL/6J mice; details: 3 μL/eye single instillation, 15 minutes later
# Description: The tear secretion promoting action of delgocitinib was evaluated using normal mice. Delgocitinib was dissolved and stirred in PBS (Kohjin Bio Co., Ltd.) to prepare delgocitinib solutions at each concentration (0.0125%, 0.05%, and 0.2%). Female C57BL/6J mice (Japan SLC, Inc.) were retained, and the PBS or the delgocitinib solutions at each concentration were instilled at a dose of 3 μL/eye. Fifteen minutes later, a phenol red thread (ZONE-QUICK, AYUMI Pharmaceutical Corporation) was inserted into conjunctival sac on the corner of the eye. Fifteen seconds later, the phenol red thread was pulled out, the length of the wet part of the phenol red thread was measured, and this measured value was used as the tear volume.
# [3] = tested on: normal rats; assay: Tear secretion promoting action by single ophthalmic administration, Schirmer's test paper, normal rats; format: in vivo, Sprague-Dawley (SD) rats; details: 5 μL/eye single instillation (DIQUAS 3%, 3% pilocarpine, 0.05% delgocitinib), 15 minutes later, Mann-whitney U test
# Description: (§1) The tear secretion promoting action of delgocitinib was evaluated using normal rats and lacrimal gland excision rats.
# (§2) As a test substance, a 0.05% delgocitinib solution (delgocitinib as the active ingredient and sodium chloride, potassium chloride, sodium hydroxide, boric acid, and chlorhexidine gluconate as additives were combined, dissolved and stirred in purified water) was prepared. As a control substance, pilocarpine hydrochloride (Tokyo Chemical Industry Co., Ltd.) was dissolved and stirred in saline (OTSUKA NORMAL SALINE, Otsuka Pharmaceutical Factory, Inc.) to prepare a 3% pilocarpine solution.
# (§3) Into normal male Sprague-Dawley (SD) rats (Japan SLC, Inc.) and SD rats whose main and accessory lacrimal glands had been excised 1 week earlier, saline, the DIQUAS ophthalmic solution 3% (Santen Pharmaceutical Co., Ltd.), the 3% pilocarpine solution, or the 0.05% delgocitinib solution was instilled at a dose of 5 μL/eye. Ten minutes later, anesthesia was induced using somnopentyl (Kyoritsu Seiyaku Corporation), and another 5 minutes later, a Schirmer's test paper was inserted into conjunctival sac on the corner of the eye. One minute later, the test paper was pulled out, and the length of the wet part of the test paper was measured, and this measured value was used as a tear volume.
# [4] = tested on: lacrimal gland excised rats; assay: Tear secretion promoting action by single ophthalmic administration, Schirmer's test paper, lacrimal gland excised rats; format: in vivo, Sprague-Dawley (SD) rats; details: rats with main and accessory lacrimal glands excised 1 week earlier; 5 μL/eye single instillation (DIQUAS 3%, 3% pilocarpine, 0.05% delgocitinib); 15 minutes later; Mann-whitney U test
# Description: as §1, §2, §3
# [5] = tested on: lacrimal gland excised rats; assay: Tear volume increasing action by repeated ophthalmic administration, lacrimal gland excised rats (dry eye model); format: in vivo, Sprague-Dawley (SD) rats; details: main lacrimal gland excised rats; each concentration (0.0125%, 0.05%, 0.2%), 5 μL/eye four times a day, four weeks; Steel test
# Description: The tear secretion volume increasing action of delgocitinib was evaluated using lacrimal gland excised rats as a dry eye model. Delgocitinib was dissolved and stirred in PBS (Kohjin Bio Co., Ltd.) to prepare delgocitinib solutions (0.0125%, 0.05%, and 0.2%) at each concentration. Into normal male Sprague-Dawley (SD) rats (Japan SLC, Inc.) and SD rats whose main lacrimal gland had been excised 1 week earlier, the PBS or the delgocitinib solutions at each concentration were repeatedly instilled four times a day at a dose of 5 μL/eye. Four weeks after the start of ophthalmic instillation, the PBS or the delgocitinib solutions at each concentration were instilled at a dose of 5 μL/eye, anesthesia was induced using somnopentyl (Kyoritsu Seiyaku Corporation) 10 minutes later, and another 5 minutes later, a Schirmer's test paper was inserted into conjunctival sac on the corner of the eye. One minute later, the test paper was pulled out, and the length of the wet part of the test paper was measured, and this measured value was used as a tear volume.
# [6] = tested on: lacrimal gland excised rats; assay: Action of ameliorating keratoconjunctival epithelial disorders by repeated ophthalmic administration, fluorescein staining score, lacrimal gland excised rats (dry eye model); format: in vivo, SD rats; details: main lacrimal gland excised rats; each concentration (0.0125%, 0.05%, 0.2%), 5 μL/eye four times a day, four weeks; Steel test
# Description: The action of ameliorating keratoconjunctival epithelial disorders of delgocitinib was evaluated using rats with lacrimal gland excision used as a dry eye model. Fluorescein sodium salt (Sigma-Aldrich Japan) was dissolved in OTSUKA NORMAL SALINE (Otsuka Pharmaceutical Factory, Inc.) to prepare a 10 mg/mL fluorescein staining solution. Delgocitinib was dissolved and stirred in PBS (Kohjin Bio Co., Ltd.) to prepare delgocitinib solutions at each concentration (0.0125%, 0.05%, and 0.2%). Into male SD rats (Japan SLC, Inc.) whose main lacrimal gland had been excised 1 week earlier, the PBS or the delgocitinib solutions at each concentration were repeatedly instilled four times a day at a dose of 5 μL/eye. Four weeks after the start of ophthalmic instillation, the 10 mg/mL fluorescein staining solution was instilled at a dose of 1 μL/eye. After induction of anesthesia with an ISOFLURANE inhalation solution (Pfizer Japan Inc.), a photograph was taken with a fluorescence microscope (Leica Microsystems). The cornea captured in the photograph was divided into four sections, the staining score of each section was scored on a scale of 0 to 5, and the total score of four sections was used as the corneal epithelial disorder score for the eye.
# [7] = tested on: dry eye model of rats; details: reported in Non Patent Literature 1; cited from earlier work
Structure (SMILES),tear volume (length of the wet part of Schirmer's test paper) compared with the PBS group [1],"tear volume (length of the wet part of phenol red thread) compared with the PBS group ([2]; 0.05% solution, Dunnett's test)","tear volume (length of the wet part of phenol red thread) compared with the PBS group ([2]; 0.2% solution, Dunnett's test)","tear volume (length of the wet part of phenol red thread) compared with the PBS group ([2]; each concentration (0.0125%, 0.05%, 0.2%))",tear volume (length of the wet part of Schirmer's test paper) compared with the saline group [3],tear volume (length of the wet part of Schirmer's test paper) compared with the saline group [4],tear volume (length of the wet part of Schirmer's test paper) compared with the PBS group [5],"corneal epithelial disorder score (fluorescein staining, total of four sections each 0 to 5) compared with the PBS group [6]",corneal epithelial disorders [7],secretion of tear [7]
"C[C@H]1CN(C(=O)CC#N)[C@]12CCN(c1ncnc3[nH]ccc13)C2 [delgocitinib, 3-[(3S,4R)-3-methyl-6-(7H-pyrrolo[2,3-d]pyrimidin-4-yl)-1,6-diazaspiro[3.4]octan-1-yl]-3-oxopropanenitrile]",significantly increased,significant increase,significant increase,increased,significantly increased,significantly increased,significantly increased,significantly decreased,–,–
"CC[C@@H]1C(=O)OC[C@@H]1Cc1cncn1C [pilocarpine, pilocarpine hydrochloride]",–,–,–,–,significantly increased,significantly increased only in the DIQUAS ophthalmic solution 3% group and the 0.05% delgocitinib solution group,–,–,–,–
O=c1ccn([C@@H]2O[C@H](COP(=O)(O)OP(=O)(O)OP(=O)(O)OP(=O)(O)OC[C@H]3O[C@@H](n4ccc(=O)[nH]c4=O)[C@H](O)[C@@H]3O)[C@@H](O)[C@H]2O)c(=O)[nH]1 [diquafosol sodium],–,–,–,–,–,–,–,–,ameliorated corneal epithelial disorders,promoted secretion of tear
